Where no end group is shown, it is not given here.
Experiments:
[1] = system: simple and complex partial seizures and secondarily generalized seizures; conditions: human epilepsy; cited from earlier work
[2] = system: rat cerebral cortical cells; assay: Neurite outgrowth in rat cerebral cortical cell cultures, MAP-2 immunofluorescence; assay type: cell-based; conditions: p<0.05
Experimental: (§1) In studies in vitro, cultures of rat hippocampal and cerebral cortical cells were established from embryonic day 18 pups. The cells were grown in culture wells (plates) for seven days in the presence of various concentrations of topiramate (0.1 nM-100 nM), or the neurotrophic factors BDNF (brain-derived neurotrophic, 10 ng) and α-MSH (alpha-melanocyte stimulating hormone, 50 nM), or vehicle (isotonic saline). Each compound was added to the culture medium in a specified set of wells at the time the cells were plated and then again four days later when the culture media was removed and replaced with fresh media. On the seventh day in culture, the cells were treated with formalin, a tissue fixative. Subsequently, the cells were treated with a fluorescein-labeled antibody specific for microtubule associated protein-2 (MAP-2), a selective marker for dendritic processes. The amount of fluorescein-labeled antibody bound to MAP-2 (FITC signal) in each well was analytically determined. This information was then used to calculate the relative degree of neurite outgrowth for the cells in each well. […] FIG. 2 is a bar graph illustrating the effects of topiramate, BDNF,α-MSH and GPI on neurite outgrowth in rat cerebral cortical cell cultures, as measured by MAP-2 immunofluorescence. […]

[3] = system: rodent models of epilepsy; conditions: several rodent models of epilepsy; cited from earlier work
rat facial nerve = assay: Rat facial nerve compression model of peripheral nerve injury, restoration of whisker movement; assay type: in vivo
Experimental: In the study in vivo, topiramate was evaluated in a rat facial nerve compression model of peripheral nerve injury. Rats were anesthetized, their skin and muscle excised to visualize the facial nerve. The nerve was injured near the stylom by compression with forceps. The wound was sutured and the rat allowed to recover before compound administration. The rats were divided into three groups: vehicle-treated, topiramate-treated (p.o., 20 mg/kg) and α-MSH-treated (s.c., 1 mg/kg). Compounds were administered twice daily for 14 days post-surgery. Facial nerve compression causes paralysis of the whisker muscle ipsilateral to the injury site. Restoration of whisker movement (lesioned versus non-lesioned side) was monitored daily for 14 days. Spontaneous recovery of whisker movement was detected as early as 10 days post-surgery with full recovery achieved by 13 days.
FIG. 3 is a line graph illustrating the effects of topiramate and α-MSH on the restoration of facial nerve function in rats, as measured by the rate whisker movement. The total rate of whisker movement on the side that the facial nerve was not injured was assigned a value of 100. Whisker movement on the side of the injured nerve is presented as a percent ±SEM of the whisker movement on the non-injured side. The rate of whisker movement was monitored visually by a skilled observer blinded to the treatment each rat received.

[4] = system: animal model of kindled epilepsy; conditions: cited from earlier work
rat hippocampal cells = assay: Neurite outgrowth in rat hippocampal cell cultures, MAP-2 immunofluorescence; assay type: cell-based; conditions: seven days in culture, concentrations ranging from 100 nM to 100 μM, P<0.05
Experimental: as §1, with “wells ([…]),” for “wells (plates) for seven days in the presence of various concentrations of topiramate (0.1 nM-100 nM),”, “FIG. 1” for “FIG. 2”, “rat hippocampal” for “rat cerebral cortical”

| Compound | efficacy in treating seizures in clinical trials [1] | neurite outgrowth ([2]; 100 nM) | neurite outgrowth ([2]; 10 μM) | block of seizures [3] | whisker movement recovery, day 11 (rat facial nerve; p.o., 20 mg/kg twice daily, day 11 post-surgery, vehicle=19%, p<0.001) | whisker movement recovery, day 12 (rat facial nerve; p.o., 20 mg/kg twice daily, day 12 post-surgery, vehicle=68%, p<0.01) | block of seizures [4] | increase in neurite outgrowth (FITC signal, MAP-2) versus vehicle (rat hippocampal cells) | increase in whisker movement recovery versus vehicle, days 11 and 12 (rat facial nerve; s.c., 1 mg/kg twice daily, days 11 and 12 post-surgery) |
| --- | --- | --- | --- | --- | --- | --- | --- | --- | --- |
| CC1(C)O[C@@H]2[C@@H](CO[C@@]3(COS(N)(=O)=O)OC(C)(C)O[C@@H]23)O1 [topiramate, 2,3:4,5-bis-O-(1-methylethylidene)-β-D-fructopyranose sulfamate] | effective as adjunctive therapy or as monotherapy | 119 % of control | 119 % of control | effectively block seizures | 60% | 92% | effectively block seizures | significantly higher |  |
| α-MSH: alpha-melanocyte stimulating hormone, neurotrophic factor used as comparator (SYSMEHFRWGKPV; ends and bridges not checked; UniProt P01189 138-150, looked up) |  |  |  |  |  |  |  |  | smaller, statistically nonsignificant increase |

Source: patent US6583172B1, “Anticonvulsant derivatives useful in treating chronic neurodegenerative disorders” (priority 1999, dated 2003)
